The source made the active and inactive calls. How the calls were made is not given here.
Biological target: Protein artemis (Homo sapiens) (UniProt Q96SD1)
Experiment: IC50 of Artemis nuclease activity blockers – biochemical, fluorescence intensity, dose response (AID 720701)
Details: Recombinant Artemis endonuclease

Chain of Protein artemis (Homo sapiens) (Q96SD1 whole entry, looked up): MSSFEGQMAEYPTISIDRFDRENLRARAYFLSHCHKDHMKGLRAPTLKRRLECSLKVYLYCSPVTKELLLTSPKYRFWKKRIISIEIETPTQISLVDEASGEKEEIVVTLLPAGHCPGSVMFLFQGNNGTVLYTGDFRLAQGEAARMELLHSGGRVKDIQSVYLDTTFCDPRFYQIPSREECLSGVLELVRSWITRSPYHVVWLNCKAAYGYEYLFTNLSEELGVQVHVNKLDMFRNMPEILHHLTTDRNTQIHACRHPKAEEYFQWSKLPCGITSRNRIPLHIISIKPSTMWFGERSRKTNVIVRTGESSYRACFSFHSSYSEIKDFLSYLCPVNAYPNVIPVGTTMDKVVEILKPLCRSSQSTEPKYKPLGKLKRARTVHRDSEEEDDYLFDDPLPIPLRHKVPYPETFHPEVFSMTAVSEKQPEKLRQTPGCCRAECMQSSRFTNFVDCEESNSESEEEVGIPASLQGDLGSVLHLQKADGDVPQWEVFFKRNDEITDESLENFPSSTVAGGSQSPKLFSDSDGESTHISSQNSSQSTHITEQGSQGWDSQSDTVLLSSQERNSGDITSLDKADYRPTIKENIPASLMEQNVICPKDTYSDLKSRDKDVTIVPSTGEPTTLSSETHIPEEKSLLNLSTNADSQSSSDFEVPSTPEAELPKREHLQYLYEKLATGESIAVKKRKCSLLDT

SMILES	IC50
CCCCCCCCC/C(=N\O)c1ccccn1	11 µM
COc1ccc(C(=O)c2c(C(F)(F)F)oc3c2C(=O)c2ccccc2C3=O)cc1OC	> 20 µM (inactive)
Nc1[nH]n2c(=O)c3c(nc2c1N=Nc1ccc(Cl)cc1)CCCC3	16.4 µM
O=c1c2ccccc2nc(N/N=C/c2c(O)ccc3ccccc23)n1O	4.68 µM
COc1ccc(O)c(/C=N/Nc2nc(Nc3ccccc3)nc(-n3nc(C)cc3C)n2)c1	2.23 µM
N#CC1=C(N)Oc2n[nH]c(-c3cccs3)c2C1c1ccoc1 (stereo unspecified)	> 20 µM (inactive)
C/C(=N\O)c1ccccc1C(=O)O	3.62 µM
Cc1cc(C)n(-c2nc(Nc3ccccc3C(F)(F)F)nc(-n3nc(C)cc3C)n2)n1	5 µM
Cc1nnc(-c2ccccc2)c(=O)n1/N=C/c1c(O)ccc2ccccc12	> 20 µM (inactive)
CN1/C(=N\O)c2cccc3cccc1c23	> 20 µM (inactive)
COc1cccc(/C=N/Nc2nc(Nc3ccccc3)nc(-n3nc(C)cc3C)n2)c1O	1.5 µM
CCN(CC)c1ccc(/C=N/Nc2nc3ccccc3[nH]2)c(O)c1	15.5 µM
Oc1ccc2ccccc2c1C=NC12CN3CCN(CN(C3)C1)C2	3.64 µM
COc1cccc(N=Nc2c(N)[nH]n3c(=O)cc(-c4ccccc4)nc23)c1	16.2 µM
O=C(CCCSc1ccccc1)Nc1nc(-c2ccccn2)cs1	9.58 µM
COc1ccc(Nc2nc(NCc3ccco3)nc(N/N=C/c3ccccc3)n2)cc1	2.65 µM

Source: PubChem BioAssay AID720701 (Sanford-Burnham Center for Chemical Genomics, 2013)
